What was measured:
Assay type in all cases: in vivo
[1] = system: Aedes aegypti; experiment: Insecticide effectiveness in the vapour phase against mosquitoes, impregnated paper unit in 20 m^3 room (Example 5); conditions: 5 mg/unit; for % mortality 24 h: 24th hour from start of test; for % Knock-down 8 h: at end of 8th hour; for Knock-down time KT10 / Knock-down time KT50 / Knock-down time KT90: average of 3 cages
Description: (§1) Test units consisting of a paper support 20 cm×10 cm in size were impregnated with the compound of example 3 and, for comparative purposes, with the reference compounds transfluthrin and metofluthrin, at an amount of 5.00 mg/unit for each compound (pure).
(§2) Using a common laboratory stand, the test unit was placed at a height of about 30 cm from the ground along one side of a 20 m^3 room (L 3.00 m×D 2.49 m×H 2.69 m). In order to homogenize the insecticidal air within the room, a small electric fan was placed on the floor diagonal to the surface of the unit, in the is nearest corner at a distance of about 50 cm from the unit. Three metal cages (L 8.4 cm×Ø 8.0 cm×mesh 1.0 mm) for every mosquito species, each containing 20 3-4 day old individuals of mixed sex, were placed along the other three sides of the room, at a height of 1.80 m from the ground and at a distance of 0.45 m from the respective walls. During the test the room was kept closed and temperature and humidity were controlled (T 23-26° C., RH 49-61%).
(§3) The fan was switched on and left on for 8 continuous hours. The times needed to reach 10%, 50% and 90% insect knock-down (KT10, KT50 and KT90, respectively) were recorded.
(§4) Every 2 hours and up to the 6th hour after the fan was switched on, new cages were introduced containing insects (set of 3 cages for each species).
(§5) At the end of the 8th hour, the percentage of insects knocked down in all the cages was determined, then the insects were removed from the room and transferred into an uncontaminated atmosphere within closed containers containing a sugary solution. The percentage mortality was recorded at the 24th hour from the start of the test.
(§6) The results obtained are summarized in tables 1 and 2 and the data are averages for the 3 cages.

[2] = system: Culex quinquefasciatus; experiment: as above; conditions: 5 mg/unit; for % mortality 24 h: 24th hour from start of test; for % Knock-down 8 h: at end of 8th hour; for Knock-down time KT10 / Knock-down time KT50 / Knock-down time KT90: average of 3 cages
Description: as §1, §2, §3, §4, §5, §6

[3] = system: Blattella germanica; experiment: Effectiveness of residual insecticide on surfaces (glazed tiles) against cockroaches (Example 6); conditions: 50 mg/m^2 on glazed tiles; for percentage knock-down after 24 hours: 24 h exposure
Description: Solutions of the compound of example 3 in acetone and, for comparison, of the reference compounds Transfluthrin and Metofluthrin were applied from a distance of 12 cm onto glazed tiles (Ostara model, 15×15 cm=225 cm^2) by means of a suitable glass sprayer, so as to obtain an applied amount of pure compound equal to 50 mg/m^2. After treatment the tiles were transferred to and maintained in a closed test room at controlled temperature and humidity (24-25° C., RH 50-60%). Glass rings (H 5.5 cm×Ø 9.5 cm), with their internal surface treated with talc, and each containing 5 cockroaches, were positioned at the centre of the tiles for each of the assessment times of 24 hours, 3, 7, 10 and 14 days following treatment. For each assessment day, the insects were maintained on the surface for 24 hours and the time (hours, minutes) necessary to attain 100% knock-down followed by death, or percentage knock-down at the end of 24 hours, were recorded.

[4] = system: Aedes aegypti; experiment: Insecticide effectiveness in the vapour phase against mosquitoes, impregnated paper unit in 20 m^3 room (Example 9); conditions: 5 mg/unit; for % mortality 24 h: 24th hour from start of test; for % Knock-down 8 h: at end of 8th hour; for Knock-down time KT10 / Knock-down time KT50 / Knock-down time KT90: average of 3 cages
Description: as §2, with “Test units consisting of a paper support 20 cm×10 cm in size were impregnated with the compound of examples 3, 7 and 8 and, for comparative purposes, with the reference compounds transfluthrin and metofluthrin, at an amount of 5.00 mg/unit for each compound (pure). Using” for “Using”, “the” for “the is”, “49-61%). The fan was switched on and left on for 8 continuous hours. The times needed to reach 10%, 50% and 90% insect knock-down (KT10, KT50 and KT90, respectively) were recorded.” for “49-61%).”
as §4, §5, §6

[5] = system: Culex quinquefasciatus; experiment: as above; conditions: 5 mg/unit; for % mortality 24 h: 24th hour from start of test; for % Knock-down 8 h: at end of 8th hour; for Knock-down time KT10 / Knock-down time KT50 / Knock-down time KT90: average of 3 cages
Description: as §2, with “Test units consisting of a paper support 20 cm×10 cm in size were impregnated with the compound of examples 3, 7 and 8 and, for comparative purposes, with the reference compounds transfluthrin and metofluthrin, at an amount of 5.00 mg/unit for each compound (pure). Using” for “Using”, “the” for “the is”, “49-61%). The fan was switched on and left on for 8 continuous hours. The times needed to reach 10%, 50% and 90% insect knock-down (KT10, KT50 and KT90, respectively) were recorded.” for “49-61%).”
as §4, §5, §6

## CC=CC1C(C(=O)OCc2c(F)c(F)c(COC)c(F)c2F)C1(C)C (centres unmarked) [Metofluthrin, (2,3,5,6-tetrafluoro-4-methoxy-methyl)benzyl-2,2-dimethyl-3-prop-1-enylcyclopropanecarboxylate]
[1]; insect exposure after 0 hours
  % mortality 24 h: 100%
  % Knock-down 8 h: 100%
  Knock-down time KT10: 23 min
  Knock-down time KT50: 30 min
  Knock-down time KT90: 39 min
[1]; insect exposure after 2 hours
  % mortality 24 h: 100%
  % Knock-down 8 h: 100%
  Knock-down time KT10: 7 min
  Knock-down time KT50: 9 min
  Knock-down time KT90: 15 min
[1]; insect exposure after 4 hours
  % mortality 24 h: 100%
  % Knock-down 8 h: 100%
  Knock-down time KT10: 6 min
  Knock-down time KT50: 8 min
  Knock-down time KT90: 14 min
[2]; insect exposure after 0 hours
  % mortality 24 h: 100%
  % Knock-down 8 h: 100%
  Knock-down time KT10: 26 min
  Knock-down time KT50: 30 min
  Knock-down time KT90: 35 min
[2]; insect exposure after 2 hours
  % mortality 24 h: 100%
  % Knock-down 8 h: 100%
  Knock-down time KT10: 11 min
  Knock-down time KT50: 16 min
  Knock-down time KT90: 24 min
[2]; insect exposure after 4 hours
  % mortality 24 h: 100%
  % Knock-down 8 h: 100%
  Knock-down time KT10: 11 min
  Knock-down time KT50: 16 min
  Knock-down time KT90: 20 min
[3]; 1 day after treatment
  percentage knock-down after 24 hours: 80%*)
[3]; 1 day after treatment, one of the 5 individuals recovered within 24 hours
  Time to reach 100% knock-down: 2 h (24 h
[3]; 3 days after treatment
  percentage knock-down after 24 hours: 24 h 40%
[3]; 7 days after treatment
  percentage knock-down after 24 hours: 24 h 0%
[3]; 10 days after treatment
  percentage knock-down after 24 hours: 24 h 0%
[4]; insect exposure after 0 hours
  % mortality 24 h: 100%
  % Knock-down 8 h: 100%
  Knock-down time KT10: 16 min
  Knock-down time KT50: 25 min
  Knock-down time KT90: 34 min
[4]; insect exposure after 2 hours
  % mortality 24 h: 100%
  % Knock-down 8 h: 100%
  Knock-down time KT10: 7 min
  Knock-down time KT50: 9 min
  Knock-down time KT90: 15 min
[4]; insect exposure after 4 hours
  % mortality 24 h: 100%
  % Knock-down 8 h: 100%
  Knock-down time KT10: 6 min
  Knock-down time KT50: 8 min
  Knock-down time KT90: 14 min
[5]; insect exposure after 0 hours
  % mortality 24 h: 100%
  % Knock-down 8 h: 100%
  Knock-down time KT10: 22 min
  Knock-down time KT50: 32 min
  Knock-down time KT90: 36 min
[5]; insect exposure after 2 hours
  % mortality 24 h: 100%
  % Knock-down 8 h: 100%
  Knock-down time KT10: 11 min
  Knock-down time KT50: 16 min
  Knock-down time KT90: 22 min
[5]; insect exposure after 4 hours
  % mortality 24 h: 100%
  % Knock-down 8 h: 100%
  Knock-down time KT10: 10 min
  Knock-down time KT50: 14 min
  Knock-down time KT90: 20 min

## CC1(C)[C@H](C=C(Cl)Cl)[C@H]1C(=O)OCc1c(F)c(F)cc(F)c1F [Transfluthrin, transfluthrin]
[1]; insect exposure after 0 hours
  % mortality 24 h: 100%
  % Knock-down 8 h: 100%
  Knock-down time KT10: 21 min
  Knock-down time KT50: 26 min
  Knock-down time KT90: 36 min
[1]; insect exposure after 2 hours
  % mortality 24 h: 100%
  % Knock-down 8 h: 100%
  Knock-down time KT10: 5 min
  Knock-down time KT50: 9 min
  Knock-down time KT90: 12 min
[1]; insect exposure after 4 hours
  % mortality 24 h: 100%
  % Knock-down 8 h: 100%
  Knock-down time KT10: 4 min
  Knock-down time KT50: 7 min
  Knock-down time KT90: 10 min
[2]; insect exposure after 0 hours
  % mortality 24 h: 100%
  % Knock-down 8 h: 100%
  Knock-down time KT10: 27 min
  Knock-down time KT50: 37 min
  Knock-down time KT90: 44 min
[2]; insect exposure after 2 hours
  % mortality 24 h: 100%
  % Knock-down 8 h: 100%
  Knock-down time KT10: 7 min
  Knock-down time KT50: 14 min
  Knock-down time KT90: 20 min
[2]; insect exposure after 4 hours
  % mortality 24 h: 100%
  % Knock-down 8 h: 100%
  Knock-down time KT10: 9 min
  Knock-down time KT50: 17 min
  Knock-down time KT90: 22 min
[3]; 1 day after treatment
  percentage knock-down after 24 hours: 60%
[3]; 3 days after treatment
  percentage knock-down after 24 hours: 24 h 0%
[3]; 7 days after treatment
  percentage knock-down after 24 hours: 24 h 0%
[4]; insect exposure after 0 hours
  % mortality 24 h: 100%
  % Knock-down 8 h: 100%
  Knock-down time KT10: 21 min
  Knock-down time KT50: 26 min
  Knock-down time KT90: 35 min
[4]; insect exposure after 2 hours
  % mortality 24 h: 100%
  % Knock-down 8 h: 100%
  Knock-down time KT10: 7 min
  Knock-down time KT50: 9 min
  Knock-down time KT90: 12 min
[4]; insect exposure after 4 hours
  % mortality 24 h: 100%
  % Knock-down 8 h: 100%
  Knock-down time KT10: 6 min
  Knock-down time KT50: 9 min
  Knock-down time KT90: 14 min
[5]; insect exposure after 0 hours
  % mortality 24 h: 100%
  % Knock-down 8 h: 100%
  Knock-down time KT10: 31 min
  Knock-down time KT50: 42 min
  Knock-down time KT90: 55 min
[5]; insect exposure after 2 hours
  % mortality 24 h: 100%
  % Knock-down 8 h: 100%
  Knock-down time KT10: 16 min
  Knock-down time KT50: 25 min
  Knock-down time KT90: 34 min
[5]; insect exposure after 4 hours
  % mortality 24 h: 100%
  % Knock-down 8 h: 100%
  Knock-down time KT10: 11 min
  Knock-down time KT50: 16 min
  Knock-down time KT90: 24 min
